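Exposure lasted 48 hours, with cells grown in 96-well plates and compounds tested at five concentrations. Here, GI50 denotes the concentration required for 50% inhibition of growth.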 Activity calls are given as the source filed them. Cut-off read from the data, not from the text of the source: active = GI50 up to about 1.1 µM and inactive = higher.
Assays:
Assay in all cases: NCI tumour cell line growth inhibition, 48 h
UACC-62 = test system: UACC-62
DU-145 = test system: DU-145
SNB-75 = test system: SNB-75
A549 = test system: A549
CAKI-1 = test system: CAKI-1
UO-31 = test system: UO-31
Hs-578T = test system: Hs-578T
HL-60 = test system: HL-60
HCC 2998 = test system: HCC 2998
HCT-116 = test system: HCT-116
CCRF-CEM = test system: CCRF-CEM
MCF7 = test system: MCF7
HT-29 = test system: HT-29
TK-10 = test system: TK-10
K562 = test system: K562
SK-MEL-28 = test system: SK-MEL-28
SF-539 = test system: SF-539
SW-620 = test system: SW-620
SF-295 = test system: SF-295
KM12 = test system: KM12
COLO 205 = test system: COLO 205
M14 = test system: M14
OVCAR-3 = test system: OVCAR-3
SR = test system: SR
HCT-15 = test system: HCT-15
OVCAR-4 = test system: OVCAR-4
NCI-H522 = test system: NCI-H522
SK-MEL-2 = test system: SK-MEL-2
T47D = test system: T47D
786-0 = test system: 786-0
MDA-MB-435 = test system: MDA-MB-435
NCI-H23 = test system: NCI-H23
SN12C = test system: SN12C
IGROV-1 = test system: IGROV-1
ACHN = test system: ACHN
HOP-62 = test system: HOP-62
U-251 = test system: U-251
NCI/ADR-RES = test system: NCI/ADR-RES
SK-OV-3 = test system: SK-OV-3
NCI-H460 = test system: NCI-H460
LOX IMVI = test system: LOX IMVI
RXF 393 = test system: RXF 393
SK-MEL-5 = test system: SK-MEL-5
MDA-MB-231 = test system: MDA-MB-231
OVCAR-8 = test system: OVCAR-8
UACC-257 = test system: UACC-257
MDA-N = test system: MDA-N
EKVX = test system: EKVX
RPMI-8226 = test system: RPMI-8226
PC-3 = test system: PC-3
MOLT-4 = test system: MOLT-4
Malme-3M = test system: Malme-3M
SF-268 = test system: SF-268

Structure (SMILES): CC1(C)N=C(N)N=C(N)N1c1ccc(CCCCCCc2ccc(S(=O)(=O)F)cc2)cc1
- GI50 (UACC-62): < 0.01 µM (active)
- GI50 (DU-145): 0.421 µM (active)
- GI50 (SNB-75): 3.36 µM (inactive)
- GI50 (A549): < 0.0376 µM (active)
- GI50 (CAKI-1): 12.3 µM (inactive)
- GI50 (UO-31): 14.1 µM (inactive)
- GI50 (Hs-578T): 2.18 µM (inactive)
- GI50 (HL-60): 0.132 µM (active)
- GI50 (HCC 2998): 2.23 µM (inactive)
- GI50 (HCT-116): 0.017 µM (active)
- GI50 (CCRF-CEM): < 0.01 µM (active)
- GI50 (MCF7): 0.0828 µM (active)
- GI50 (HT-29): < 0.0468 µM (active)
- GI50 (TK-10): 1.02 µM (active)
- GI50 (K562): < 0.0105 µM (active)
- GI50 (SK-MEL-28): 3.88 µM (inactive)
- GI50 (SF-539): < 0.0189 µM (active)
- GI50 (SW-620): < 0.0211 µM (active)
- GI50 (SF-295): 0.114 µM (active)
- GI50 (KM12): 0.276 µM (active)
- GI50 (COLO 205): 0.144 µM (active)
- GI50 (M14): 1.24 µM (inactive)
- GI50 (OVCAR-3): 0.247 µM (active)
- GI50 (SR): < 0.01 µM (active)
- GI50 (HCT-15): 0.857 µM
- GI50 (OVCAR-4): 31.8 µM (inactive)
- GI50 (NCI-H522): 1.55 µM (inactive)
- GI50 (SK-MEL-2): 3.72 µM (inactive)
- GI50 (T47D): 8 µM (inactive)
- GI50 (786-0): < 0.01 µM (active)
- GI50 (MDA-MB-435): 0.0557 µM (active)
- GI50 (NCI-H23): 0.0617 µM (active)
- GI50 (SN12C): 0.028 µM (active)
- GI50 (IGROV-1): < 0.0395 µM (active)
- GI50 (ACHN): 0.274 µM (active)
- GI50 (HOP-62): 1.19 µM (inactive)
- GI50 (U-251): < 0.0352 µM (active)
- GI50 (NCI/ADR-RES): 22.9 µM (inactive)
- GI50 (SK-OV-3): 8.53 µM (inactive)
- GI50 (NCI-H460): < 0.0229 µM (active)

Structure (SMILES): CCCCCCCCCC[C@@H](OC(C)=O)[C@@H]1CC[C@@H]([C@@H]2CC[C@@H]([C@@H](O)CC#C/C=C/CCCCCCC[C@@]3(Sc4ccccc4)C[C@H](C)OC3=O)O2)O1
- GI50 (UACC-62): > 10 µM (inactive)
- GI50 (DU-145): > 10 µM (inactive)
- GI50 (LOX IMVI): > 10 µM (inactive)
- GI50 (SNB-75): > 10 µM (inactive)
- GI50 (A549): > 10 µM (inactive)
- GI50 (CAKI-1): > 10 µM (inactive)
- GI50 (RXF 393): > 10 µM (inactive)
- GI50 (HL-60): > 10 µM (inactive)
- GI50 (HCC 2998): > 10 µM (inactive)
- GI50 (SK-MEL-5): 4.57 µM (inactive)
- GI50 (MDA-MB-231): > 10 µM (inactive)
- GI50 (CCRF-CEM): > 10 µM (inactive)
- GI50 (MCF7): > 10 µM (inactive)
- GI50 (HT-29): > 10 µM (inactive)
- GI50 (TK-10): > 10 µM (inactive)
- GI50 (K562): 9.89 µM (inactive)
- GI50 (SK-MEL-28): > 10 µM (inactive)
- GI50 (SW-620): > 10 µM (inactive)
- GI50 (SF-295): > 10 µM (inactive)
- GI50 (KM12): > 10 µM (inactive)
- GI50 (COLO 205): > 10 µM (inactive)
- GI50 (M14): > 10 µM (inactive)
- GI50 (SR): > 10 µM (inactive)
- GI50 (HCT-15): > 10 µM
- GI50 (OVCAR-8): > 10 µM (inactive)
- GI50 (UACC-257): 3.08 µM (inactive)
- GI50 (MDA-N): > 10 µM (inactive)
- GI50 (EKVX): > 10 µM (inactive)
- GI50 (T47D): 7.46 µM (inactive)
- GI50 (786-0): > 10 µM (inactive)
- GI50 (NCI-H23): 0.968 µM (active)
- GI50 (RPMI-8226): > 10 µM (inactive)
- GI50 (SN12C): > 10 µM (inactive)
- GI50 (IGROV-1): > 10 µM (inactive)
- GI50 (PC-3): > 10 µM (inactive)
- GI50 (HOP-62): > 10 µM (inactive)
- GI50 (MOLT-4): > 10 µM (inactive)
- GI50 (Malme-3M): > 10 µM (inactive)
- GI50 (SF-268): > 10 µM (inactive)
- GI50 (SK-OV-3): > 10 µM (inactive)
